What was measured:
[1] = test system: POAAN; assay: greenhouse test, pre-emergence treatment; assay type: in vivo, Poa annua
Excerpt: (§1) The culture containers used were plastic pots containing loamy sand with approximately 3.0% of humus as substrate. The seeds of the test plants were sown separately for each species.
(§2) For the pre-emergence treatment, the active compounds, suspended or emulsified in water, were applied directly after sowing by means of finely distributing nozzles. The containers were irrigated gently to promote germination and growth and subsequently covered with transparent plastic hoods until the plants had rooted. This cover caused uniform germination of the test plants unless this was adversely affected by the active compounds.
(§3) Depending on the species, the plants were kept at 10-25° C. and 20-35° C., respectively. The test period extended over 2 to 4 weeks. During this time, the plants were tended and their response to the individual treatments was evaluated.
(§4) Evaluation was carried out using a scale from 0 to 100. 100 means no emergence of the plants, or complete destruction of at least the above-ground parts, and 0 means no damage or normal course of growth. Good herbicidal activity is given at values of at least 70, and very good herbicidal activity is given at values of at least 85.
(§5) The respective stated components A and B, and if appropriate, C were formulated as a 5% by weight or 10% by weight strength emulsion concentrate or a commercially available formulation of component B was used and, with addition of the amount of solvent system, introduced into the spray liquor used for applying the active compound. In the examples, the solvent used was water.
(§6) The test period extended over 20 or 21 days. During this time, the plants were tended, and their reactions to the treatment with active compound was monitored.
(§7) What was evaluated was the damage by the chemical compositions using a scale of from 0 to 100%, in comparison to the untreated control plants. 0 means no damage, and 100 means complete destruction of the plants.
(§8) In the examples below, using the method of S. R. Colby (1967) “Calculating synergistic and antagonistic responses of herbicide combinations”, Weeds 15, p. 22 ff., the value E, which is expected if the activity of the individual active compounds is only additive, was calculated.
(§9) where X=percent activity using active compound A at an application rate a; Y=percent activity using active compound B at an application rate b; E=expected activity (in %) by A+B at application rates a+b.
(§10) If the value found in experiments is higher than the value E calculated according to Colby, a synergistic effect is present.

[2] = test system: MATIN; assay: greenhouse test, pre-emergence treatment; assay type: in vivo, Matricaria inodora; conditions: Use Example 2
Excerpt: as §1, §2, §3, §4, §5, §6, §7, §8, §9, §10

[3] = test system: SETVI; assay: greenhouse test, post-emergence treatment; assay type: in vivo, Setaria viridis
Description: as §1
(§11) For the post-emergence treatment, the test plants were grown to a plant height of from 3 to 15 cm, depending on the plant habit, and only then treated with the active compounds which had been suspended or emulsified in water. To this end, the test plants were either sown directly and grown in the same containers, or they were first grown separately as seedlings and transplanted into the test containers a few days prior to treatment.
as §3, §4, §5, §6, §7, §8, §9, §10

[4] = test system: LAMPU; assay: greenhouse test, pre-emergence treatment; assay type: in vivo, Lamium purpureum; conditions: 125 g/ha a.s., Use Example 11
Excerpt: as §1, §2, §3, §4, §5, §6, §7, §8, §9, §10

[5] = test system: ECHCG; assay: greenhouse test, pre-emergence treatment; assay type: in vivo, Echinochloa crus-galli; conditions: Use Example 2
Excerpt: as §1, §2, §3, §4, §5, §6, §7, §8, §9, §10

[6] = test system: CCHEC; assay: greenhouse test, pre-emergence treatment; assay type: in vivo, Cenchrus echinatus
Excerpt: as §1, §2, §3, §4, §5, §6, §7, §8, §9, §10

[7] = test system: DIGSA; assay: greenhouse test, post-emergence treatment; assay type: in vivo, Digitaria sanguinalis; conditions: Use Example 18
Description: as §1, §11, §3
as §4, with “85. […]” for “85.”
as §6
(§12) What was evaluated was the damage by the chemical compositions using a scale of from 0 to 100%, in comparison to the untreated control plants. […]
(§13) In the examples below, using the method of S. R. Colby (1967) “Calculating synergistic and antagonistic responses of herbicide combinations”, Weeds 15, p. 22 ff., the value E, which is expected if the activity of the individual active compounds is only additive, was calculated. […]
as §10

[8] = test system: SETLU; assay: greenhouse test, pre-emergence treatment; assay type: in vivo, Setaria glauca; conditions: for Herbicidal action in % after 21 days against SETLU: Use Example 9
Excerpt: as §1, §2, §3, §4, §5, §6, §7, §8, §9, §10

[9] = test system: ALOMY; assay: greenhouse test, post-emergence treatment; assay type: in vivo, Alopecurus myosuroides; conditions: Use Example 17
Description: as §1, §11, §3, §4, §5, §6, §7, §8, §9, §10

[10] = test system: DIGSA; assay: greenhouse test, pre-emergence treatment; assay type: in vivo, Digitaria sanguinalis; conditions: for Herbicidal action in % after 21 days against DIGSA: Use Example 9
Excerpt: as §1, §2, §3, §4, §5, §6, §7, §8, §9, §10

[11] = test system: STEME; assay: greenhouse test, pre-emergence treatment; assay type: in vivo, Stellaria media; conditions: Use Example 2
Excerpt: as §1, §2, §3, §4, §5, §6, §7, §8, §9, §10

[12] = test system: SETVI; assay: greenhouse test, pre-emergence treatment; assay type: in vivo, Setaria viridis; conditions: 125 g/ha a.s., Use Example 11
Excerpt: as §1, §2
Depending on the species, the plants were kept at 10-25° C. and 20-35° C., respectively. […] During this time, the plants were tended and their response to the individual treatments was evaluated. […]
as §6, §12, §13

CN1C(=O)C(C)(Cc2ccccc2)N(C)C(=O)C1=Cc1ccccc1C#N (stereo not drawn) [Example 20, 2-[5-Benzyl-1,4,5-trimethyl-3,6-dioxopiperazin-2-ylidenemethyl]benzo-nitrile]
Herbicidal action in % after 20 days against POAAN ([1]; 125 g/ha a.s., Use Example 7): 60% | Herbicidal action in % after 20 days against POAAN ([1]; 125 g/ha a.s., Use Example 15): 60% | Herbicidal action in % after 20 days against POAAN ([1]; 250 g/ha a.s., Use Example 6): 85% | Herbicidal action in % after 20 days against POAAN ([1]; 250 g/ha a.s., Use Example 7): 85% | Herbicidal action in % after 20 days against POAAN ([1]; 250 g/ha a.s., Use Example 15): 85% | Herbicidal action in % after 20 days against POAAN ([1]; 500 g/ha a.s., Use Example 6): 95% | Herbicidal action in % after 20 days against MATIN ([2]; 62.5 g/ha a.s.): 0% | Herbicidal action in % after 20 days against MATIN ([2]; 125 g/ha a.s.): 30% | Herbicidal action in % after 20 days against MATIN ([2]; 250 g/ha a.s.): 90% | Herbicidal action in % after 20 days against SETVI ([3]; 62.5 g/ha a.s., Use Example 18): 60% | Herbicidal action in % after 20 days against SETVI ([3]; 125 g/ha a.s., Use Example 17): 70% | Herbicidal action in % after 20 days against SETVI ([3]; 125 g/ha a.s., Use Example 18): 70% | Herbicidal action in % after 20 days against SETVI ([3]; 250 g/ha a.s., Use Example 17): 80% | Herbicidal action in % after 21 days against LAMPU [4]: 75% | Herbicidal action in % after 20 days against ECHCG ([5]; 62.5 g/ha a.s.): 70% | Herbicidal action in % after 20 days against ECHCG ([5]; 125 g/ha a.s.): 95% | Herbicidal action in % after 20 days against ECHCG ([5]; 250 g/ha a.s.): 100% | Herbicidal action in % after 21 days against CCHEC ([6]; 62.5 g/ha a.s., Use Example 3): 20% | Herbicidal action in % after 20 days against CCHEC ([6]; 250 g/ha a.s., Use Example 16): 90% | Herbicidal action in % after 20 days against DIGSA ([7]; 62.5 g/ha a.s.): 45% | Herbicidal action in % after 20 days against DIGSA ([7]; 125 g/ha a.s.): 70% | Herbicidal action in % after 21 days against SETLU ([8]; 125 g/ha a.s.): 90% | Herbicidal action in % after 20 days against SETLU ([8]; 125 g/ha a.s., Use Example 14): 90% | Herbicidal action in % after 21 days against SETLU ([8]; 250 g/ha a.s.): 100% | Herbicidal action in % after 20 days against SETLU ([8]; 250 g/ha a.s., Use Example 16): 98% | Herbicidal action in % after 20 days against ALOMY ([9]; 125 g/ha a.s.): 40% | Herbicidal action in % after 20 days against ALOMY ([9]; 250 g/ha a.s.): 70% | Herbicidal action in % after 20 days against DIGSA ([10]; 125 g/ha a.s., Use Example 5): 90% | Herbicidal action in % after 21 days against DIGSA ([10]; 125 g/ha a.s.): 90% | Herbicidal action in % after 20 days against DIGSA ([10]; 125 g/ha a.s., Use Example 14): 90% | Herbicidal action in % after 20 days against DIGSA ([10]; 250 g/ha a.s., Use Example 5): 100% | Herbicidal action in % after 21 days against DIGSA ([10]; 250 g/ha a.s.): 100% | Herbicidal action in % after 20 days against STEME ([11]; 62.5 g/ha a.s.): 0% | Herbicidal action in % after 20 days against STEME ([11]; 125 g/ha a.s.): 20% | Herbicidal action in % after 20 days against STEME ([11]; 250 g/ha a.s.): 50% | Herbicidal action in % after 21 days against SETVI [12]: 80%
